# PMC9186362, “Design and biological evaluation of substituted 5,7-dihydro-6H-indolo[2,3-c]quinolin-6-one as novel selective Haspin inhibitors” (Journal of Enzyme Inhibition and Medicinal Chemistry, 2022)
# What was measured:
# [1] = test system: endogenous Haspin (H3T3ph) in U-2 OS cells; assay: Endogenous Haspin activity, H3T3ph immunofluorescence; format: cell-based, human; settings: 0.5 µM, 16 h, early mitotic U-2 OS cells
# Procedure: U-2 OS cells were grown on glass coverslips, treated for 16 h than fixed with 4% paraformaldehyde in PBS, permeabilized by 0.15% Triton-X100 for 2 min, blocked for 15 min in 4% BSA in PBS and processed using standard immunofluorescence protocols. Primary antibodies included anti-phospho-Thr3 Histone H3 (1/1000 dilution, Millipore) and anti-α-tubulin (1/5000 dilution, clone B512, Sigma). Images were acquired with a Coolsnap HQ2 CCD camera (Photometrics) on a Zeiss Axio microscope (Carl Zeiss) using a 63x NA 1.40 objective. Image acquisition and processing were performed using Metamorph (Molecular Device). Quantification of signal intensity was performed using ImageJ software (NIH).
# [2] = test system: U-2 OS, HCT116, MDA-MB231, SH-SY5Y and RPE-1 cell lines; assay: Cell viability primary screen at 25 μM; format: cell-based, human; settings: 48 h
# Procedure: HCT116 cells were cultured in McCoy’s medium. SH-SY5Y, MDA-MB231 and U-2 OS cells were cultured in Dulbecco's modified Eagle's medium (DMEM) and hTERT RPE-1 cells in DMEM:F12 medium. All media were supplemented with 10% foetal calf serum and cells were cultured at 37 °C in a 5% CO2 humidified atmosphere.
# Cell viability was then assessed using the CellTiter96 AQueous cell proliferation assay from Promega according to the manufacturer’s instructions. Each experiment was done in triplicate and EC50 were determined from the dose-response curves according to the signal given by the control (0.1% DMSO) set at 100% viability using Prism GraphPad software.
# U-2 OS cells = assay: Cell cycle analysis by flow cytometry; format: cell-based, human; settings: 1 µM, 24 h
# Procedure: After treatment with the compounds, cells were trypsinized and washed once in PBS. Cells were fixed for 1 h in ice-cold 70% ethanol, then washed once in PBS, centrifuged at 200 g and resuspended in a PBS buffer containing 100 µg/ml RNase A (Thermo Scientific) and 40 µg/ml propidium iodide (Life Technologies). DNA content was determined using a flow cytometer Attune^TM NxT (Thermofisher) and ten thousand events were collected in each run. The data were analysed using FCS Express 7 Pro software (De Novo).
# PRKCG (PKC gamma) = PRKCG (PKC gamma) (Homo sapiens, UniProt P05129); assay: SelectScreen ZLYTE; format: biochemical; settings: ATP Km, read-out: Percentage of inhibition
# Outline: (§1)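 Readout is % inhibition. The inhibitor was applied at 1 μM against every kinase of an extensive commercial panel.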
# RET V804E = biological target: T1, RET V804E (Homo sapiens, UniProt P07949, V804E); assay: SelectScreen ZLYTE; format: biochemical; settings: ATP Km, read-out: Percentage of inhibition
# T1 construct: purchased Life Technologies (SelectScreen service)
# Outline: as §1
# CLK3 = CLK3 (Homo sapiens, UniProt P49761); assay: SelectScreen ZLYTE; format: biochemical; settings: ATP Km, read-out: Percentage of inhibition
# Outline: as §1
# TNK1 = biological target: T2, TNK1 (Homo sapiens, UniProt Q13470); assay: SelectScreen ZLYTE; format: biochemical; settings: ATP Km, read-out: Percentage of inhibition
# T2 construct: purchased Life Technologies
# Outline: as §1
# RPS6KB1 (p70S6K) = biological target: T3, RPS6KB1 (p70S6K) (Homo sapiens, UniProt P23443); assay: SelectScreen ZLYTE; format: biochemical; settings: ATP Km, read-out: Percentage of inhibition
# T3 construct: purchased Life Technologies (SelectScreen Whole Panel service)
# Outline: as §1
# FGFR2 = biological target: T4, FGFR2 (Homo sapiens, UniProt P21802); assay: SelectScreen ZLYTE; format: biochemical; settings: ATP Km, read-out: Percentage of inhibition
# T4 construct: purchased Life Technologies
# T4 sequence (P21802 22-821): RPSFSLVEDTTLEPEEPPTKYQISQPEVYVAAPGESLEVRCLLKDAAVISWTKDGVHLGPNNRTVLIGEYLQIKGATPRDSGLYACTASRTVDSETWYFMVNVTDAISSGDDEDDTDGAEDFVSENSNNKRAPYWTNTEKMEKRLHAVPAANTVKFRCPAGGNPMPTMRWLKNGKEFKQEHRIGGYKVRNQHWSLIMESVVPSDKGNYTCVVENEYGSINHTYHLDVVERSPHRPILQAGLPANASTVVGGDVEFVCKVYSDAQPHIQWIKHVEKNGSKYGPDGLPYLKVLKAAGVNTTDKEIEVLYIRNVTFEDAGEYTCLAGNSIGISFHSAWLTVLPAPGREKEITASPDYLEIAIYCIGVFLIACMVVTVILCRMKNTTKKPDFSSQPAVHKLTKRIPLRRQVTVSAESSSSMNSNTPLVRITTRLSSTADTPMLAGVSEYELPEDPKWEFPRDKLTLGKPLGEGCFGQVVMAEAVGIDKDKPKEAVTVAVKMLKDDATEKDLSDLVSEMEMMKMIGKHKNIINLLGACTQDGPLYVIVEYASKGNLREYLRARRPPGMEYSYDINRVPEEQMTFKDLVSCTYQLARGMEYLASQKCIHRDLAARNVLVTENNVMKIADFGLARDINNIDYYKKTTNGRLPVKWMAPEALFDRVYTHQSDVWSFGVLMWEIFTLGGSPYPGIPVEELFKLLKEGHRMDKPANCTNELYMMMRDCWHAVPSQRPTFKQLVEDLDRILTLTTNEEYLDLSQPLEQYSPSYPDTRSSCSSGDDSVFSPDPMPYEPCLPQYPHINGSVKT
# Outline: as §1
# PDGFRA (PDGFR alpha) = biological target: T5, PDGFRA (PDGFR alpha) (Homo sapiens, UniProt P16234); assay: SelectScreen ZLYTE; format: biochemical; settings: ATP Km, read-out: Percentage of inhibition
# T5 construct: purchased Life Technologies (SelectScreen Whole Panel service)
# Outline: as §1
# EGFR (ErbB1) = biological target: T6, EGFR (ErbB1) (Homo sapiens, UniProt P00533); assay: SelectScreen ZLYTE; format: biochemical; settings: ATP Km, read-out: Percentage of inhibition
# T6 construct: purchased Life Technologies
# Outline: as §1
# GRK6 = biological target: T7, GRK6 (Homo sapiens, UniProt P43250); assay: SelectScreen ZLYTE; format: biochemical; settings: ATP Km, read-out: Percentage of inhibition
# T7 construct: purchased Life Technologies
# T7 sequence (P43250 whole entry): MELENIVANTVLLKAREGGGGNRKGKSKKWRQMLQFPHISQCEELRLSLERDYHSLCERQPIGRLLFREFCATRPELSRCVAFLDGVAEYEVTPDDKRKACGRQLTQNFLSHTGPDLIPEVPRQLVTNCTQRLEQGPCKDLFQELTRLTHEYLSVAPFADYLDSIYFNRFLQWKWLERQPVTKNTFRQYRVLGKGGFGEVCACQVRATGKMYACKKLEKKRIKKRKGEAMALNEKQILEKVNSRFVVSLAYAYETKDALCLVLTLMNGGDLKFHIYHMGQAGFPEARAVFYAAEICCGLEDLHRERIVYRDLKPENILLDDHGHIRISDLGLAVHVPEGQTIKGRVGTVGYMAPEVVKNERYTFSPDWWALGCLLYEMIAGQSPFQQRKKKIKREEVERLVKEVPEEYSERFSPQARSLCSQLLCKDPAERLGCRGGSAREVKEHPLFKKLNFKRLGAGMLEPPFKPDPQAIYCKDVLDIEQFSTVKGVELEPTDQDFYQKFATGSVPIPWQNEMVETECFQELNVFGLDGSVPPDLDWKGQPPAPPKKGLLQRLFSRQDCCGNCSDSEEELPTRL
# Outline: as §1
# CSNK1D (CK1 delta) = biological target: T8, CSNK1D (CK1 delta) (Homo sapiens, UniProt P48730); assay: SelectScreen ZLYTE; format: biochemical; settings: ATP Km, read-out: Percentage of inhibition
# T8 construct: purchased Life Technologies (SelectScreen service)
# Outline: as §1
# NEK4 = biological target: T9, NEK4 (Homo sapiens, UniProt P51957); assay: SelectScreen ZLYTE; format: biochemical; settings: ATP Km, read-out: Percentage of inhibition
# T9 construct: purchased Life Technologies
# Outline: as §1
# FLT1 (VEGFR1) = biological target: T10, FLT1 (VEGFR1) (Homo sapiens, UniProt P17948); assay: SelectScreen ZLYTE; format: biochemical; settings: ATP Km, read-out: Percentage of inhibition
# T10 construct: purchased Life Technologies (SelectScreen Whole Panel service)
# Outline: as §1
# CSF1R (FMS) = CSF1R (FMS) (Homo sapiens, UniProt P07333); assay: SelectScreen ZLYTE; format: biochemical; settings: ATP Km, read-out: Percentage of inhibition
# Outline: as §1
# PRKD1 (PKC mu) = biological target: T11, PRKD1 (PKC mu) (Homo sapiens, UniProt Q15139); assay: SelectScreen ZLYTE; format: biochemical; settings: ATP Km, read-out: Percentage of inhibition
# T11 construct: purchased Life Technologies (SelectScreen Whole Panel service)
# T11 sequence (Q15139 whole entry): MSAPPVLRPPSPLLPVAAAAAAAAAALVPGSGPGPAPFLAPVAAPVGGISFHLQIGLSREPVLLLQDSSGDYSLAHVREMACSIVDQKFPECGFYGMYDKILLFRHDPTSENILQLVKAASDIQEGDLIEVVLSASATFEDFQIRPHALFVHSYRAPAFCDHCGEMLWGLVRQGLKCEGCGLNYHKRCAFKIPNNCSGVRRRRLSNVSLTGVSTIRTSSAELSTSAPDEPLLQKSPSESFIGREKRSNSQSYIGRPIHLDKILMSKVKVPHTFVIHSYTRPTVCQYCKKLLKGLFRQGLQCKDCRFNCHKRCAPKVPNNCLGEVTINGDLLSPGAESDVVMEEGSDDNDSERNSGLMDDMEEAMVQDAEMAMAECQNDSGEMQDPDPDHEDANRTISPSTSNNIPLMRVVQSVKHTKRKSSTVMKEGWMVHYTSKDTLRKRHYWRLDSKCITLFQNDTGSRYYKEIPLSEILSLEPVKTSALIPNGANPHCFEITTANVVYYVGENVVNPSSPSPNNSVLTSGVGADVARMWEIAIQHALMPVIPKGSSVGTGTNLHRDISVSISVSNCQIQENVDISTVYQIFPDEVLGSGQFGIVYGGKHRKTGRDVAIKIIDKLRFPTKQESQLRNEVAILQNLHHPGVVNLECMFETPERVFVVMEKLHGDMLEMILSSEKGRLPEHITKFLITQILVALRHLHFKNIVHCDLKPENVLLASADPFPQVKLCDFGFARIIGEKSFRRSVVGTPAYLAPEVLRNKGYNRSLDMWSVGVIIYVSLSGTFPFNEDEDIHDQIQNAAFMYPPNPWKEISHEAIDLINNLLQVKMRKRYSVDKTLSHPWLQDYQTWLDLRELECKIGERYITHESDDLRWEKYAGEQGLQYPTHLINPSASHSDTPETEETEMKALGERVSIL
# Outline: as §1
# [3] = biological target: CSNK1E (CK1 epsilon) R178C (Homo sapiens, UniProt P49674, R178C); assay: SelectScreen ZLYTE; format: biochemical; settings: ATP Km, read-out: Percentage of inhibition
# Chain of CSNK1E (CK1 epsilon) R178C (P49674 whole entry R178C): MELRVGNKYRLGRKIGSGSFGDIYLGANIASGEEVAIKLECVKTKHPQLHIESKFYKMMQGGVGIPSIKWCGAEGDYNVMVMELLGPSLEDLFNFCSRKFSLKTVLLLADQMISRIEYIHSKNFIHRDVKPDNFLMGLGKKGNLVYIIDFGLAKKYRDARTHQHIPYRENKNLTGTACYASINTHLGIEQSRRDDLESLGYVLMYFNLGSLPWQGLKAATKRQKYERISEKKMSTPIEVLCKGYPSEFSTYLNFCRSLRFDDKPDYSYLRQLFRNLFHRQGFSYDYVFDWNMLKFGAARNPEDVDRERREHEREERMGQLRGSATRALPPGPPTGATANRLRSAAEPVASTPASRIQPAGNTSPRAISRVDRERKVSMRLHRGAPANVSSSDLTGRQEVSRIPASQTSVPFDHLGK
# Outline: as §1
# panel of 486 kinases = assay: SelectScreen Whole Panel selectivity profile; format: biochemical; settings: 1 µM
# Procedure: (§2) We further evaluated the selectivity profile of compound 55 on a larger panel of kinases (SelectScreen Whole Panel, Life Technologies). The inhibition profile of 55, evaluated at 1 μM, is depicted on a dendrogram on Figure 3 where kinases inhibited by a minimum of 80% are shown. A full list of the kinases tested is shown on Table S1 in supplementary information.
# [4] = biological target: T12, PIK3CA/PIK3R3 (p110 alpha/p55 gamma) (Homo sapiens, UniProt P42336); assay: SelectScreen Adapta; format: biochemical; settings: ATP Km, read-out: Percentage of inhibition
# T12 construct: purchased Life Technologies (SelectScreen Whole Panel)
# Procedure: as §2
# NUAK1 (ARK5) = NUAK1 (ARK5) (Homo sapiens, UniProt O60285); assay: SelectScreen Adapta; format: biochemical; settings: ATP Km, read-out: Percentage of inhibition
# Procedure: as §2
# PIP4K2A = PIP4K2A (Homo sapiens, UniProt P48426); assay: SelectScreen Adapta; format: biochemical; settings: ATP 10 µM, read-out: Percentage of inhibition
# Chain of PIP4K2A (P48426 whole entry): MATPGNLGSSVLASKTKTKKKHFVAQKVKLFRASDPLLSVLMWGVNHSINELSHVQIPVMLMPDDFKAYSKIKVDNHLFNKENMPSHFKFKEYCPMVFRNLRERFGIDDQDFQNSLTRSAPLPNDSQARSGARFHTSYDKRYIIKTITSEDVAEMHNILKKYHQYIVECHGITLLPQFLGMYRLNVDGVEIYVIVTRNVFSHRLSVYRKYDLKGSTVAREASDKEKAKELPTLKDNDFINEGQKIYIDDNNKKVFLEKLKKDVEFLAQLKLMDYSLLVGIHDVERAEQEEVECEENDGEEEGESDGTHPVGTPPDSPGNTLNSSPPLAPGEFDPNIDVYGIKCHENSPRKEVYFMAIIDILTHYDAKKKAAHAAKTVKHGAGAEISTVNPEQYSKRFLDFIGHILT
# Procedure: as §2
# SPHK1 = biological target: T13, SPHK1 (Homo sapiens, UniProt Q9NYA1); assay: SelectScreen Adapta; format: biochemical; settings: ATP Km, read-out: Percentage of inhibition
# T13 construct: purchased Life Technologies (SelectScreen Whole Panel)
# T13 sequence (Q9NYA1 whole entry): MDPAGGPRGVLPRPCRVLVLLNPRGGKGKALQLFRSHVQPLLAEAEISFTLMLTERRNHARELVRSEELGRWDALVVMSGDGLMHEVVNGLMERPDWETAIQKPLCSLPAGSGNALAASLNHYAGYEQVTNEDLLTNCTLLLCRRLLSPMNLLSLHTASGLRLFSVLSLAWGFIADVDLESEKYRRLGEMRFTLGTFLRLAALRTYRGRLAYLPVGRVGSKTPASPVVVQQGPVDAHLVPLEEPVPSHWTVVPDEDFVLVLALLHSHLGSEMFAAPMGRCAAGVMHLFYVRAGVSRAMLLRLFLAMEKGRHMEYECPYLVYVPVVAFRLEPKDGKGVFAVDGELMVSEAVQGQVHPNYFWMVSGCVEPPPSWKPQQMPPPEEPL
# Procedure: as §2
# LRRK2 = biological target: T14, LRRK2 (Homo sapiens, UniProt Q5S007); assay: SelectScreen Adapta; format: biochemical; settings: ATP Km, read-out: Percentage of inhibition
# T14 construct: purchased Life Technologies (SelectScreen service)
# T14 sequence (Q5S007 970-2527 limits assumed): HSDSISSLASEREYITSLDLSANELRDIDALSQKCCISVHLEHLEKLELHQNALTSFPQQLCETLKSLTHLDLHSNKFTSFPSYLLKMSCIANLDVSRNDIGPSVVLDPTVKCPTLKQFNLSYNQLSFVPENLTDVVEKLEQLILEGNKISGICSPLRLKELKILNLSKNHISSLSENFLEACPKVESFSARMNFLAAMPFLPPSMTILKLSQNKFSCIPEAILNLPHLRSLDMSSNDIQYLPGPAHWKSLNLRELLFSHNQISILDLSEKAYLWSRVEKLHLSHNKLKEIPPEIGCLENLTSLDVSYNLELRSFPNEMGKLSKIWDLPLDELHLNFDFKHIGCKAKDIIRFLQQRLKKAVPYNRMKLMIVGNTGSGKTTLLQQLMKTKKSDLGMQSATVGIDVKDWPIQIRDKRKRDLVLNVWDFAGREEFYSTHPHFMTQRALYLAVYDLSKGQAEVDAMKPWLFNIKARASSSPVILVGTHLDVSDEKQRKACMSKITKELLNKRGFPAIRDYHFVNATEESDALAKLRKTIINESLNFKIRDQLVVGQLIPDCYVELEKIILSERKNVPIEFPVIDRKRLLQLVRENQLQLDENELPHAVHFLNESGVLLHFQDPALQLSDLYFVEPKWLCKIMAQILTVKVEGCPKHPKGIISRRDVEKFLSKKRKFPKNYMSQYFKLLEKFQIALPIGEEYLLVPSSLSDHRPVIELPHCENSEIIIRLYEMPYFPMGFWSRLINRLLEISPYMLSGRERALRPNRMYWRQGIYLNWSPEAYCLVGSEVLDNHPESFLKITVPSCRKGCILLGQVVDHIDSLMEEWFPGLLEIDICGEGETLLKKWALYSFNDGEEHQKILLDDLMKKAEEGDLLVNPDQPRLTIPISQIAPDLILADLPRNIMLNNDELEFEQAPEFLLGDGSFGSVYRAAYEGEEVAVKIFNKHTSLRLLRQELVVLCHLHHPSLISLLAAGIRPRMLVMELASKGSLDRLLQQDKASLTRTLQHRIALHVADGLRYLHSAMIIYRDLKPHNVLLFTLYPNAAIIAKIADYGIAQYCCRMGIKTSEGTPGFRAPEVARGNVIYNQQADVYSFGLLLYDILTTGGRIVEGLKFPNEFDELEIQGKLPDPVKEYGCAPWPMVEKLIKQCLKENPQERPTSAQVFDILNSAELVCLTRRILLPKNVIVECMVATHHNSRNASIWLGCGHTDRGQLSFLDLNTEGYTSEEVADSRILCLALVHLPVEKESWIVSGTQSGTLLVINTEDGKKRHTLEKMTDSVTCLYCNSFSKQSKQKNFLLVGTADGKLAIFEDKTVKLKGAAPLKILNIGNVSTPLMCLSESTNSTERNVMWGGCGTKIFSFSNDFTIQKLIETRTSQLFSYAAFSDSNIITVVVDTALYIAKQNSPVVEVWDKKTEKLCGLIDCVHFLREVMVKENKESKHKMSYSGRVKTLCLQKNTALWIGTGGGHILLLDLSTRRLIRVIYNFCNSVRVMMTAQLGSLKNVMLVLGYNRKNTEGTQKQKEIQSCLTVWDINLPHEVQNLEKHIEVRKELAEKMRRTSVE
# Procedure: as §2
# GSG2 (Haspin) = biological target: T15, GSG2 (Haspin) (Homo sapiens, UniProt Q8TF76); assay: SelectScreen Adapta; format: biochemical; settings: ATP Km, read-out: Percentage of inhibition
# T15 construct: purchased Life Technologies (SelectScreen Whole Panel)
# Procedure: as §2
# [5] = biological target: PIK3CA E542K/PIK3R1 (p110 alpha E542K/p85 alpha (Homo sapiens, UniProt P42336, E542K)); assay: SelectScreen Adapta; format: biochemical; settings: ATP 10 µM, read-out: Percentage of inhibition
# Procedure: as §2
# CHUK (IKK alpha) = biological target: T16, CHUK (IKK alpha) (Homo sapiens, UniProt O15111); assay: SelectScreen Adapta; format: biochemical; settings: ATP Km, read-out: Percentage of inhibition
# T16 construct: purchased Life Technologies
# Procedure: as §2
smiles,measurement,setting,value
"COc1ccc2[nH]c3c(=O)[nH]c4ccc(O)cc4c3c2c1 [Compound 55, 2-Hydroxy-10-methoxy-5,7-dihydro-6H-indolo[2,3-c]quinolin-6-one]",Inhibition of intracellular Haspin (H3T3ph signal),[1],could inhibit intracellular Haspin
same,Reduction of cell viability compared to the DMSO control,[2],≥ 75%
same,% of cycling cells G2/M,U-2 OS cells; DMSO control 6%,20%
same,% of cycling cells S,U-2 OS cells; DMSO control 44%,44%
same,% of cycling cells G1,U-2 OS cells; DMSO control 50%,36%
same,inhibition at 1 µM,PRKCG (PKC gamma),14%
same,inhibition at 1 µM,RET V804E,86%
same,inhibition at 1 µM,CLK3,57%
same,inhibition at 1 µM,TNK1,30%
same,inhibition at 1 µM,RPS6KB1 (p70S6K),12%
same,inhibition at 1 µM,FGFR2,42%
same,inhibition at 1 µM,PDGFRA (PDGFR alpha),43%
same,inhibition at 1 µM,EGFR (ErbB1),4%
same,inhibition at 1 µM,GRK6,32%
same,inhibition at 1 µM,CSNK1D (CK1 delta),81%
same,inhibition at 1 µM,NEK4,28%
same,inhibition at 1 µM,FLT1 (VEGFR1),10%
same,inhibition at 1 µM,CSF1R (FMS),63%
same,inhibition at 1 µM,PRKD1 (PKC mu),45%
same,inhibition at 1 µM,[3],70%
same,Number of the 486 kinases inhibited by >50%,panel of 486 kinases,159
same,inhibition at 1 µM,[4],53%
same,inhibition at 1 µM,NUAK1 (ARK5),65%
same,inhibition at 1 µM,PIP4K2A,13%
same,inhibition at 1 µM,SPHK1,-3%
same,inhibition at 1 µM,LRRK2,90%
same,inhibition at 1 µM,GSG2 (Haspin),100%
same,inhibition at 1 µM,[5],70%
same,inhibition at 1 µM,CHUK (IKK alpha),38%
